# Measured values as given in ChEMBL document CHEMBL1201862, “PubChem BioAssay data set” (2004).
#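 96-well plates; 48 h exposure; 5 concentrations. Endpoints by linear interpolation between flanking doses. Not reached: highest tested concentration assigned. Here, GI50 denotes the concentration required for 50% inhibition of growth.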 Active and inactive are the calls of the source. No stated cut-off is given here; in the data, active = GI50 up to about 1.1 µM and inactive = higher.
# Assays:
# Assay in all cases: NCI anticancer screen, dose series, 48 h
# 786-0 = system: 786-0
# A498 = system: A498
# A549 = system: A549
# ACHN = system: ACHN
# CAKI-1 = system: CAKI-1
# CCRF-CEM = system: CCRF-CEM
# COLO 205 = system: COLO 205
# DU-145 = system: DU-145
# EKVX = system: EKVX
# HCC 2998 = system: HCC 2998
# HCT-116 = system: HCT-116
# HCT-15 = system: HCT-15
# HL-60 = system: HL-60
# HOP-62 = system: HOP-62
# HOP-92 = system: HOP-92
# HT-29 = system: HT-29
# Hs-578T = system: Hs-578T
# IGROV-1 = system: IGROV-1
# K562 = system: K562
# KM12 = system: KM12
# LOX IMVI = system: LOX IMVI
# MCF7 = system: MCF7
# MDA-MB-231 = system: MDA-MB-231
# MDA-MB-435 = system: MDA-MB-435
# MDA-N = system: MDA-N
# MOLT-4 = system: MOLT-4
# Malme-3M = system: Malme-3M
# NCI-H226 = system: NCI-H226
# NCI-H23 = system: NCI-H23
# NCI-H460 = system: NCI-H460
# NCI-H522 = system: NCI-H522
# NCI/ADR-RES = system: NCI/ADR-RES
# OVCAR-3 = system: OVCAR-3
# OVCAR-4 = system: OVCAR-4
# OVCAR-5 = system: OVCAR-5
# OVCAR-8 = system: OVCAR-8
# PC-3 = system: PC-3
# RPMI-8226 = system: RPMI-8226
# RXF 393 = system: RXF 393
# SF-268 = system: SF-268
# SF-295 = system: SF-295
# SK-MEL-28 = system: SK-MEL-28
# SK-MEL-2 = system: SK-MEL-2
# SK-MEL-5 = system: SK-MEL-5
# SK-OV-3 = system: SK-OV-3
# SN12C = system: SN12C
# SNB-19 = system: SNB-19
# SNB-75 = system: SNB-75
# SW-620 = system: SW-620
# T47D = system: T47D
# TK-10 = system: TK-10
# U-251 = system: U-251
# UACC-257 = system: UACC-257
# UACC-62 = system: UACC-62
# UO-31 = system: UO-31
# BT-549 = system: BT-549
# M14 = system: M14
# SF-539 = system: SF-539
smiles,measurement,setting,value
CN(CCCNCc1ccccn1)Cc1ccccc1O,GI50,786-0,52.7 µM (inactive)
same,GI50,A498,> 100 µM (inactive)
same,GI50,A549,37.1 µM (inactive)
same,GI50,ACHN,13.9 µM (inactive)
same,GI50,CAKI-1,42.8 µM (inactive)
same,GI50,CCRF-CEM,50.8 µM (inactive)
same,GI50,COLO 205,29 µM (inactive)
same,GI50,DU-145,40.1 µM (inactive)
same,GI50,EKVX,33.4 µM (inactive)
same,GI50,HCC 2998,25.1 µM (inactive)
same,GI50,HCT-116,60.4 µM (inactive)
same,GI50,HCT-15,6.4 µM
same,GI50,HL-60,2.74 µM (inactive)
same,GI50,HOP-62,12.4 µM (inactive)
same,GI50,HOP-92,42.9 µM (inactive)
same,GI50,HT-29,22 µM (inactive)
same,GI50,Hs-578T,> 100 µM (inactive)
same,GI50,IGROV-1,20.2 µM (inactive)
same,GI50,K562,39.8 µM (inactive)
same,GI50,KM12,28.5 µM (inactive)
same,GI50,LOX IMVI,23.1 µM (inactive)
same,GI50,MCF7,43 µM (inactive)
same,GI50,MDA-MB-231,> 100 µM (inactive)
same,GI50,MDA-MB-435,44.4 µM (inactive)
same,GI50,MDA-N,58.2 µM (inactive)
same,GI50,MOLT-4,13.7 µM (inactive)
same,GI50,Malme-3M,27.8 µM (inactive)
same,GI50,NCI-H226,15.4 µM (inactive)
same,GI50,NCI-H23,14.4 µM (inactive)
same,GI50,NCI-H460,7.19 µM (inactive)
same,GI50,NCI-H522,56.2 µM (inactive)
same,GI50,NCI/ADR-RES,16.3 µM (inactive)
same,GI50,OVCAR-3,24.9 µM (inactive)
same,GI50,OVCAR-4,31.8 µM (inactive)
same,GI50,OVCAR-5,32 µM (inactive)
same,GI50,OVCAR-8,26.8 µM (inactive)
same,GI50,PC-3,65.3 µM (inactive)
same,GI50,RPMI-8226,36.3 µM (inactive)
same,GI50,RXF 393,16.7 µM (inactive)
same,GI50,SF-268,57.9 µM (inactive)
same,GI50,SF-295,20.4 µM (inactive)
same,GI50,SK-MEL-28,> 100 µM (inactive)
same,GI50,SK-MEL-2,35.2 µM (inactive)
same,GI50,SK-MEL-5,21 µM (inactive)
same,GI50,SK-OV-3,45.2 µM (inactive)
same,GI50,SN12C,71.1 µM (inactive)
same,GI50,SNB-19,21.6 µM (inactive)
same,GI50,SNB-75,> 100 µM (inactive)
same,GI50,SW-620,> 100 µM (inactive)
same,GI50,T47D,34 µM (inactive)
same,GI50,TK-10,7.21 µM (inactive)
same,GI50,U-251,96.8 µM (inactive)
same,GI50,UACC-257,24.3 µM (inactive)
same,GI50,UACC-62,18.7 µM (inactive)
same,GI50,UO-31,3.73 µM (inactive)
O=C(NI1OC(=O)c2ccccc21)c1ccc(Cl)cc1,GI50,786-0,> 100 µM (inactive)
same,GI50,A498,> 100 µM (inactive)
same,GI50,A549,> 100 µM (inactive)
same,GI50,ACHN,> 100 µM (inactive)
same,GI50,BT-549,> 100 µM (inactive)
same,GI50,CAKI-1,> 100 µM (inactive)
same,GI50,CCRF-CEM,85.5 µM (inactive)
same,GI50,COLO 205,> 100 µM (inactive)
same,GI50,DU-145,> 100 µM (inactive)
same,GI50,EKVX,> 100 µM (inactive)
same,GI50,HCC 2998,76.2 µM (inactive)
same,GI50,HCT-116,> 100 µM (inactive)
same,GI50,HCT-15,96.6 µM
same,GI50,HL-60,> 100 µM (inactive)
same,GI50,HOP-62,> 100 µM (inactive)
same,GI50,HOP-92,> 100 µM (inactive)
same,GI50,HT-29,> 100 µM (inactive)
same,GI50,IGROV-1,> 100 µM (inactive)
same,GI50,K562,28.4 µM (inactive)
same,GI50,KM12,> 100 µM (inactive)
same,GI50,LOX IMVI,> 100 µM (inactive)
same,GI50,M14,> 100 µM (inactive)
same,GI50,MCF7,> 100 µM (inactive)
same,GI50,MDA-MB-231,> 100 µM (inactive)
same,GI50,MDA-MB-435,> 100 µM (inactive)
same,GI50,NCI-H226,60.4 µM (inactive)
same,GI50,NCI-H23,> 100 µM (inactive)
same,GI50,NCI-H460,> 100 µM (inactive)
same,GI50,NCI-H522,14.1 µM (inactive)
same,GI50,NCI/ADR-RES,> 100 µM (inactive)
same,GI50,OVCAR-3,> 100 µM (inactive)
same,GI50,OVCAR-4,> 100 µM (inactive)
same,GI50,OVCAR-5,> 100 µM (inactive)
same,GI50,OVCAR-8,> 100 µM (inactive)
same,GI50,PC-3,> 100 µM (inactive)
same,GI50,RPMI-8226,> 100 µM (inactive)
same,GI50,RXF 393,> 100 µM (inactive)
same,GI50,SF-268,> 100 µM (inactive)
same,GI50,SF-295,> 100 µM (inactive)
same,GI50,SF-539,> 100 µM (inactive)
same,GI50,SK-MEL-28,> 100 µM (inactive)
same,GI50,SK-MEL-2,> 100 µM (inactive)
same,GI50,SK-MEL-5,> 100 µM (inactive)
same,GI50,SK-OV-3,> 100 µM (inactive)
same,GI50,SN12C,> 100 µM (inactive)
same,GI50,SNB-75,> 100 µM (inactive)
same,GI50,SW-620,34.4 µM (inactive)
same,GI50,T47D,> 100 µM (inactive)
same,GI50,TK-10,> 100 µM (inactive)
same,GI50,U-251,45.7 µM (inactive)
same,GI50,UACC-257,> 100 µM (inactive)
same,GI50,UACC-62,51.6 µM (inactive)
same,GI50,UO-31,43.2 µM (inactive)
